Test results as given in US20250270170A1, “2,3-DIMETHOXY-5-METHYL-1,4-BENZOQUINONE ALKYL ALCOHOL DERIVATIVE AND USE THEREOF” (BEIJING ANJIANXI BIO-MEDICAL TECHNOLOGY CO., LTD., priority 2021, published 2025).
Marks after values point to notes of the source that are not given here.

Experiments:
[1] = system: human colorectal cancer HT29 transplanted tumor; assay: Example 10: tumor growth in HT-29 transplanted tumor model; type: in vivo, nude mice; details: for Mean tumor volume ± SE / tumor growth inhibition rate: HT-29 model, DDP 5 mg/kg i.p. QW × 3, R01 18 mg/kg i.g. BID × 28
Description: The human colorectal cancer cell lines HT-29 were obtained from the Cell Bank of the Type Culture Collection Committee of Chinese Academy of Sciences (CAS, cryopreserved in liquid nitrogen in this assay).
HT-29 cells were routinely cultured in a McCoy […] containing 10% fetal bovine serum under culture conditions of 37° C. and 5% CO2. The cells were digested with 0.25% trypsin, and passaged according to the cell growth conditions with a passaging ratio of 1:3 to 1:4.
On D1 of the assay, the HT-29 cells in the logarithmic growth phase were collected, counted and resuspended in serum-free McCoy, and the cell concentration was adjusted to 4×10^7 cells/mL. The cells were pipetted with a pipette to disperse them evenly, and the cells were put into a 50-mL centrifuge tube, which was placed in an ice box. A 1-mL syringe was used to draw the cell suspension, which was injected subcutaneously into the axilla of the front right limb of a nude mouse. Each animal was inoculated with 100 μL (4×10^6 cells/mouse) to establish a HT-29 transplanted tumor model in nude mice. After the inoculation, the animal status and tumor growth were regularly observed. On D12, the tumor diameter was measured using an electronic vernier caliper. The data were input into an Excel spreadsheet to calculate the tumor volume. Tumor-bearing mice in good health and with similar tumor volumes (103 to 179 mm^3) were selected and divided into groups using randomized block method. After the start of the assay, the tumor diameter was measured regularly, the tumor volume was calculated, and the animal body weight was also weighed and recorded.

NCI-H460 cells = assay: Flow cytometry for apoptosis detection (Annexin V-FITC/PI), NCI-H460; type: cell-based, human; details: 72 h
Description: (1) Cells were inoculated in a 6-well plate. When the cell growth density was appropriate, four concentrations (0 μM, 10 μM, 30 μM, and 90 μM) of the compound of formula (I) were added, and placed in an incubator at 37° C. with 5% CO2 to continue culturing for 72 hours.
(2) After reaching the designated time point, the cell culture plate was taken out from the incubator, and placed in a biological safety cabinet. A 4 ml centrifuge tube was taken and marked. The supernatant in the 6-well plate was pipetted out and added to the corresponding 4 ml centrifuge tube. The cells were gently washed with PBS, and the PBS was added to the corresponding centrifuge tube. An appropriate amount of trypsin was added to each well to digest the cells. When the cells were digested to a moderate degree, the liquid in the centrifuge tube was added to the corresponding well. The cells were gently pipetted with a pipette to disperse the cells, and was pipetted back into the original centrifuge tube. The tube was immediately centrifuged at 1500 rpm for 5 minutes. Then, the supernatant was discarded and the precipitate was retained.
(3) 2 ml of PBS was added to the centrifuge tube, which was centrifuged again at 1000 rpm for 5 minutes. The supernatant was discarded. This step was repeated again.
(4) The cells were suspended with 1× Binding buffer, and the cell concentration was adjusted to approximately 1×10^6 cells/ml. 100 μl of cell suspension was added to the flow cytometry tube, and 5 μl of PI and 5 μl of Annexin V-FITC were added to each tube. The cells were gently vortexed, and incubated at room temperature in dark for 15 min.
(5) 400 μl of 1× Binding buffer was further added to each tube, and the detection was performed on the flow cytometer (the detection was in need to be completed within 1 hour).
We used AnnexinV-FITC and PI double staining method for apoptosis staining. FL1 channel was selected for FITC, and FL2 channel was selected for PI. Flow cytometry analysis was used to detect cell apoptosis. Q1, Q2, Q3, and Q4 represented dead cells, late apoptotic cells, early apoptotic cells, and normal cells, respectively (FIG. 7). After treating A549 and NCI-H460 cells with the compound of formula (I) at different concentrations (0 μM, 10 μM, 30 μM, and 90 μM) for 72 h, the flow cytometry results are as follows. Table 1 and Table 2 show the proportions of dead cells, late apoptotic cells, early apoptotic cells, and normal cells after treating the A549 and NCI-H460 cells with different concentrations of the compound of formula (I), respectively.

SMILES	Mean tumor volume ± SE ([1]; D 12 (grouping)) [mm^3]	Mean tumor volume ± SE ([1]; D 15) [mm^3]	tumor growth inhibition rate ([1]; D 15)	Mean tumor volume ± SE ([1]; D 19)	tumor growth inhibition rate ([1]; D 19)	Mean tumor volume ± SE ([1]; D 22)	tumor growth inhibition rate ([1]; D 22)	Mean tumor volume ± SE ([1]; D 26)	tumor growth inhibition rate ([1]; D 26)	Mean tumor volume ± SE ([1]; D 29)	tumor growth inhibition rate ([1]; D 29)	Mean tumor volume ± SE ([1]; D 33)	tumor growth inhibition rate ([1]; D 33)	Mean tumor volume ± SE ([1]; D 36)	tumor growth inhibition rate ([1]; D 36)	Mean tumor volume ± SE ([1]; D 40)	tumor growth inhibition rate ([1]; D 40)	further results
N.N.[Cl][Pt][Cl] [DDP, cisplatin]	131 ± 8	178 ± 10	(37%)	263 ± 11** mm^3	(48%)	383 ± 25** mm^3	(36%)	484 ± 28** mm^3	(39%)	582 ± 25** mm^3	(44%)	693 ± 34** mm^3	(48%)	777 ± 38** mm^3	(47%)	896 ± 56** mm^3	(45%)	–
COC1=C(OC)C(=O)C(CCCCCCCCCCOC(=O)Cc2c(C)n(C(=O)c3ccc(Cl)cc3)c3ccc(OC)cc23)=C(C)C1=O [compound of formula (I)]	134 ± 9	178 ± 7	(40%)	280 ± 9** mm^3	(42%)	393 ± 19** mm^3	(34%)	532 ± 31** mm^3	(31%)	631 ± 40** mm^3	(38%)	832 ± 59** mm^3	(36%)	903 ± 73** mm^3	(37%)	1070 ± 94** mm^3	(33%)	Q1 Gated % (dead cells) (NCI-H460 cells; 10 μM): 1.72 ± 0.08%; Q2 Gated % (late apoptotic cells) (NCI-H460 cells; 10 μM): 3.23 ± 2.59%; Q3 Gated % (early apoptotic cells) (NCI-H460 cells; 10 μM): 1.55 ± 1.16%; Q4 Gated % (normal cells) (NCI-H460 cells; 10 μM): 93.5 ± 3.82%; percentage of apoptosis (total apoptosis) (NCI-H460 cells; 10 μM): 4.78 ± 3.75; Q1 Gated % (dead cells) (NCI-H460 cells; 30 μM): 1.75 ± 0.45%; Q2 Gated % (late apoptotic cells) (NCI-H460 cells; 30 μM): 4.79 ± 0.37%; Q3 Gated % (early apoptotic cells) (NCI-H460 cells; 30 μM): 5.01 ± 1.70%; Q4 Gated % (normal cells) (NCI-H460 cells; 30 μM): 88.45 ± 2.47%; percentage of apoptosis (total apoptosis) (NCI-H460 cells; 30 μM): 9.8 ± 2.06; Q1 Gated % (dead cells) (NCI-H460 cells; 90 μM): 0.55 ± 0.04%; Q2 Gated % (late apoptotic cells) (NCI-H460 cells; 90 μM): 9.32 ± 0.35%; Q3 Gated % (early apoptotic cells) (NCI-H460 cells; 90 μM): 38.35 ± 2.33%; Q4 Gated % (normal cells) (NCI-H460 cells; 90 μM): 51.85 ± 2.05%; percentage of apoptosis (total apoptosis) (NCI-H460 cells; 90 μM): 47.67 ± 1.99; anti-tumor effect in combination with cisplatin (summary) ([1]; HT-29 transplanted tumor model in nude mice): synergistic anti-tumor effect
